Laboratory results: patent US5447942A, “N-derivatives of (phenylethyl-β-ol) amine, a process for their preparation and pharamaceutical compositions containing the same” (Societe de Conseils de Recherches et d'Applications …, priority 1992, dated 1995)
Where two headings read alike, the source gives them in different places.

Assays:
[1] = test system: acetylcholine induced bronchoconstriction; assay: inhibition of acetylcholine induced bronchoconstriction, Konzett and Rossler method (Table B); format: in vivo, Male Hartley Guinea Pigs; settings: IV; for inhibition in vivo at 4.6 µmol/kg / inhibition in vivo at 1.53 µmol/kg / inhibition in vivo at 3.6 µmol/kg: Cavia porcellus
Method: Male Hartley Guinea Pigs (450-500 g) were anaesthetised with ethyl carbamate and prepared for recording bronchoconstriction according to Konzett and Rossler method (Naunym Schmiedebergers Arch. Exp. Path. Pharmakol (1940) 195, 71). To abolish spontaneous respiration, an injection IV of vecuronium bromide (2 mg/kg) was made. Bronchoconstriction was induced by IV injection of Acetylcholine and the animals received one dose of β agonist compound (IV) 5 minutes later.

β adrenoceptors = assay: radioligand binding studies in lung membrane (Table A, binding affinity)
Description: The results are summarised in Table A. Generally, the activity is better for the trans than the cis isomer.

α, receptor = assay: binding α receptor
[2] = test system: isolated aorta contraction induced by phenylephrine; assay: inhibition of isolated aorta contraction induced by phenylephrine

| SMILES | bronchoconstriction protection, duration of action ([1]; 4.6 μmol/kg) [mn] | inhibition in vivo at 4.6 µmol/kg ([1]; 5 min, 4.6 μmol/kg, 5 mn, read-out: bronchoconstriction protection, score 5 mn) [%] | inhibition in vivo at 4.6 µmol/kg ([1]; 0.25 h, 4.6 μmol/kg, 15 mn, read-out: bronchoconstriction protection, score 15 mn) [%] | inhibition in vivo at 4.6 µmol/kg ([1]; 0.5 h, 4.6 μmol/kg, 30 mn, read-out: bronchoconstriction protection, score 30 mn) [%] | Ki (β adrenoceptors) [nM] | Ki (α, receptor) [nM] | pA2, inhibitor of isolated aorta contraction induced by phenylephrine [2] | bronchoconstriction protection, duration of action ([1]; 1.53 μmol/kg) [mn] | bronchoconstriction protection, duration of action ([1]; 3.6 μmol/kg) [mn] | inhibition in vivo at 1.53 µmol/kg ([1]; 5 min, 1.53 μmol/kg, 5 mn, read-out: bronchoconstriction protection, score 5 mn) [%] | inhibition in vivo at 3.6 µmol/kg ([1]; 5 min, 3.6 μmol/kg, 5 mn, read-out: bronchoconstriction protection, score 5 mn) [%] | inhibition in vivo at 1.53 µmol/kg ([1]; 0.25 h, 1.53 μmol/kg, 15 mn, read-out: bronchoconstriction protection, score 15 mn) [%] | inhibition in vivo at 3.6 µmol/kg ([1]; 0.25 h, 3.6 μmol/kg, 15 mn, read-out: bronchoconstriction protection, score 15 mn) [%] | inhibition in vivo at 1.53 µmol/kg ([1]; 0.5 h, 1.53 μmol/kg, 30 mn, read-out: bronchoconstriction protection, score 30 mn) [%] | inhibition in vivo at 3.6 µmol/kg ([1]; 0.5 h, 3.6 μmol/kg, 30 mn, read-out: bronchoconstriction protection, score 30 mn) [%] |
| --- | --- | --- | --- | --- | --- | --- | --- | --- | --- | --- | --- | --- | --- | --- | --- |
| COc1cc([C@H]2CC[C@@H](CNCC(O)c3ccc(O)c(CO)c3)O2)cc(OC)c1OC (relative stereo) [Example 2 (cis), 2-(3',4',5'-trimethoxyphenyl)-5-[N-[β-(3'-hydroxymethyl-4'-hydroxy-phenyl)-β-hydroxy-ethyl]-aminomethyl]-tetrahydrofuran] | 5 | 20 to 50 | < 20 | < 20 | 410 | 61 | 7.75 |  |  |  |  |  |  |  |  |
| COc1ccc([C@H]2CC[C@H](CNCC(O)c3ccc(O)c(CO)c3)O2)c(OC)c1OC (relative stereo) [Example 3 (trans), 2-(2',3',4'-trimethoxyphenyl)-5-[N-[β-(3'-hydroxymethyl-4'-hydroxy-phenyl)-β-hydroxy-ethyl]-aminomethyl]-tetrahydrofuran] |  |  |  |  | 1600 |  |  | 5 | 30 | 20 to 50 | 50 to 75 | < 20 | 20 to 50 | < 20 | 20 to 50 |
